Results: paper PMC9960827, “Cloning and Characterization of Trypanosoma congolense and T. vivax Nucleoside Transporters Reveal the Potential of P1-Type Carriers for the Discovery of Broad-Spectrum Nucleoside-Based Therapeutics against Animal African Trypanosomiasis” (International Journal of Molecular Sciences, 2023)
Read-outs that look alike come from different tables or passages of the source.

Columns and labels:
[1] = biological target: T. congolense adenosine transporter; assay: [3H]-adenosine uptake and its inhibition in T. congolense IL3000 bloodstream forms; format: cell-based, Trypanosoma congolense
Method in brief: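 Bloodstream-form T. congolense IL3000 (1 × 10^7 cells) in HEPES/bicarbonate buffer pH 7.3 took up [3H]-adenosine over a set interval, with or without inhibitor, ending by ice-cold unlabeled substrate stop or centrifugation through oil. Pellet radioactivity gave IC50 by sigmoid fit; Ki followed by Cheng–Prusoff using adenosine Km.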

[2] = biological target: TcoAT1; format: cell-based, Trypanosoma congolense; details: for ΔG0: Gibbs free energy of binding, from Km or Ki; for δ(ΔG0): loss of Gibbs free energy of binding relative to the parent nucleoside
Method in brief: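 Transporter genes were expressed in an L. mexicana line lacking NT1 and NT2 (SUPKO), and 1 × 10^7 cells in HEPES/bicarbonate buffer pH 7.3 took up radiolabeled permeant through an oil layer, with or without inhibitor. Uptake was stopped with ice-cold unlabeled substrate or by centrifugation, and pellets were counted. IC50 against radiolabeled adenosine was converted to Ki by Cheng–Prusoff using the permeant Km.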

[3] = biological target: TvxNT3 (Trypanosoma vivax, UniProt F9WV62); assay: cell-based; format: cell-based; details: for δ(ΔG0): difference in ΔG0 relative to the parent purine (adenosine or inosine)
TvxNT3, sequence (F9WV62 entry or part of it): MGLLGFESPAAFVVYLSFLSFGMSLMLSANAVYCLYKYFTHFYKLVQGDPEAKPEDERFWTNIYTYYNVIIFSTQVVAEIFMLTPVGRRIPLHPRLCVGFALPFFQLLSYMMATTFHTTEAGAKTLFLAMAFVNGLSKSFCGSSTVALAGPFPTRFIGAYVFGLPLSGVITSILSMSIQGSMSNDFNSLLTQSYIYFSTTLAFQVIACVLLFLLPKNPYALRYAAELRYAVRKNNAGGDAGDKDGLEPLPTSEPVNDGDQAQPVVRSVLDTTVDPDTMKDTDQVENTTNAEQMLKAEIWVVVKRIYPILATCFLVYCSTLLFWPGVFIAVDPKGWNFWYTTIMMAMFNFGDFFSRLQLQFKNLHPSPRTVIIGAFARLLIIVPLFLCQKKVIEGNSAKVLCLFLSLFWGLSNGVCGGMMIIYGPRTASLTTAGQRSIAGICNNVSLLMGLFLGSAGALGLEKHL
Excerpt: The information for the T. congolense adenosine transporter (TcoAT1) and four putative T. vivax nucleoside transporters was obtained in the TritrypDB (tritrypdb.org/tritrypdb) genome database. Primers were designed to flank each gene upstream of the 5′ end (forward) and downstream of the 3′ end (reverse) as described (primer sequences in Supplementary Table S2). Following amplification from the genomic DNA of T. congolense or T. vivax, DNA for each extracted gene was ligated into the pNUS-HcN expression vector doubly digested with NdeI using the NEBuilder kit according to the manufacturer’s instructions (New England Biolabs). Construct was transformed into competent E. coli cells, and ligation was confirmed by restriction enzyme digestion of isolated plasmid DNA followed by Sanger sequencing (Source BioScience, Nottingham, UK). Confirmed plasmids were then transfected into L. mexicana cell line in which both NT1 and NT2 were doubly knocked out (SUPKO) and derived from L. mexicana Cas9 [64] as described. Clones grown in medium containing 50 μg/mL neomycin (G418) were collected for further confirmation by PCR with genomic DNA using a forward primer of the transporter gene and a reverse primer of the plasmid.
Uptake assays using radiolabeled trypanocides and/or nucleosides were carried out as described previously. Briefly, parasite cultures were harvested, washed twice in assay buffer (33 mM HEPES, 98 mM NaCl, 4.6 mM KCl, 0.5 mM CaCl2, 0.07 mM MgSO4, 5.8 mM NaH3PO4, 0.03 mM MgCl2, 23 mM NaHCO3, 14 mM D-glucose, pH 7.3), then resuspended and adjusted to a density of 1 × 10^8 cells/mL in assay buffer. The radiolabeled permeant in the presence or absence of different concentrations of potential inhibitors reconstituted in 100 μL assay buffer was deposited on top of 250 μL oil mix in microcentrifuge tubes; 1 × 10^7 parasites in 100 μL assay buffer were added to the tube and incubated for a pre-determined interval. The reaction was stopped by the addition of 1 mL of a high concentration of ice-cold unlabeled substrate in assay buffer (‘stop solution’) and centrifugation, or by immediate centrifugation at […] as appropriate. The microcentrifuge tubes were flash-frozen, and the bottom of each tube containing the cell pellet was cut off and transferred to a scintillation vial. Cell pellets were lysed in 2% SDS, after which scintillation fluid (Scintlogic U, Lablogic) was added, followed by overnight incubation in the dark. Scintillation was measured in a 300SL (Hidex) scintillation counter (Hidex). All the assays were conducted in triplicate and analysis was carried out using Microsoft Excel and GraphPad Prism. All kinetic parameters were obtained on at least 3 separate occasions.
The dose-dependent uptake assay allowed for the affinity of nucleoside analogs to different nucleoside transporters to be determined by measuring the extent to which the analogs compete with and inhibit the uptake of radiolabel adenosine. This allowed for the determination of biochemical parameters such as Km and Vmax through the application of the Michaelis–Menten equation V0 = Vmax([substrate]/([substrate] + Km)). The 50% Inhibitory Concentration (IC50) of the purines and pyrimidines and their analogs was determined from non-linear regression to sigmoid curves with variable slope (Prism 8), and the IC50 of the inhibitor and the Km of the labeled permeant were then used to calculate the inhibition constant (Ki) of the analogs through the Cheng–Prusoff equation: Ki = IC50/(1 + (L/Km)), where L denotes the radiolabel concentration. The calculated Ki was in turn used to determine the Gibbs free energy (ΔG^0) of the inhibitor–transporter interaction using the equation: ΔG^0 = -RTln(Ki), where R represents the gas constant and T symbolizes the absolute temperature in Kelvin [104].

[4] = test system: L. mexicana Cas9; assay: Resazurin drug sensitivity assay, LmexCas9; format: cell-based, Leishmania mexicana; details: Leishmania mexicana, read-out: LmexCas9 EC50
Method in brief: (§1)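 Dose-response data were plotted against a sigmoid equation allowing a variable slope, and the EC50 was read from that fit. Replicates were independent determinations on separate days, at least three per value, then averaged.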

[5] = test system: L. mexicana SUPKO+TcoAT1; assay: microbe, parasite or virus in culture; format: cell-based, Leishmania mexicana; details: Leishmania mexicana, read-out: SUPKO+TcoAT1 EC50
Method in brief: as §1

[6] = test system: L. mexicana SUPKO+TvxNT3; assay: microbe, parasite or virus in culture; format: cell-based, Leishmania mexicana; details: Leishmania mexicana, read-out: SUPKO+TvxNT3 EC50
Method in brief: as §1

[7] = test system: L. mexicana SUPKO; assay: microbe, parasite or virus in culture; format: cell-based, Leishmania mexicana; details: Leishmania mexicana, read-out: SUPKO EC50, resazurin, promastigotes
Method in brief: as §1

[8] = test system: T. congolense IL3000; assay: Alamar Blue (resazurin) assay, T. congolense IL3000; format: cell-based, Trypanosoma congolense; details: Trypanosoma congolense, read-out: T. congolense IL3000 EC50
Protocol: (§2) EC50 values were determined by plotting to an equation for a sigmoid curve with variable slope (GraphPad Prism 8). All values were the average of at least three independent determinations on different days.

[9] = test system: T. congolense 6C3; assay: microbe, parasite or virus in culture; format: cell-based, Trypanosoma congolense; details: Trypanosoma congolense; diminazene resistant strain, resazurin; read-out: T. congolense 6C3 EC50
Protocol: as §2

[10] = test system: T.b.b. B48; assay: Alamar Blue (resazurin) assay, T. b. brucei B48; format: cell-based, Trypanosoma brucei brucei; details: Trypanosoma brucei, read-out: T.b.b. B48 EC50
Protocol: as §2

[11] = test system: T. congolense IL3000-based cell line expressing TbAT1; assay: Resazurin drug sensitivity assay, T. congolense IL3000 expressing TbAT1; parameters: species or system Trypanosoma congolense; details: three independent clones, p < 0.0001
Protocol: as §2

[12] = biological target: T. b. brucei P1 (TbP1/NT2); details: cited from earlier work
[13] = test system: T. brucei wild type; details: cited from earlier work
[14] = test system: T. brucei TbAT1-KO; details: cited from earlier work
[15] = test system: TbNT10; parameters: method as in Al-Salabi et al. [40]; details: called Km values; ref Al-Salabi et al. [40]; cited from earlier work

With `Nc1ncnc2c1ccn2[C@@H]1O[C@H](CO)[C@@H](O)[C@H]1O` [Tubercidin, 7-deazaadenosine] the Ki ([1]; 0.05 µM [3H]-adenosine, 30 s, IC50 converted to Ki, read-out: Ki on the transport of [3H]-adenosine) was 403 ± 120 µM, the Ki ([2]; 0.05 µM [3H]-adenosine, 10 s, IC50 converted to Ki, read-out: Ki on the transport of [3H]-adenosine) was 754 ± 54.3 µM and the ΔG0 [2] was -4.25 kcal/mol. For the same compound, the “δ(ΔG0)” value [2] was 4.441 kcal/mol, the “δ(ΔG0)” value ([2]; listed as tubercidin) was 4.45 kcal/mol and the “δ(ΔG0)” value [3] was -3.148 kcal/mol. For the same compound, the “δ(ΔG0)” value ([3]; listed as tubercidin) was 3.15 kcal/mol, the EC50 [4] was 0.44 ± 0.06 µM and the EC50 [5] was greater than 100 µM. For the same compound, the EC50 [6] was greater than 100 µM, the EC50 [7] was greater than 100 µM and the EC50 [8] was 3.16 ± 0.5 µM. For the same compound, the EC50 [9] was 1.83 ± 0.39 µM, the EC50 [10] was 4.3 ± 1.3 µM and the “effect of TbAT1 expression on sensitivity” value [11] was “highly significant sensitization”. For the same compound, the Ki ([12]; T. b. brucei bloodstream forms, read-out: Tbb P1 Ki) was 78 ± 6.4 µM, the “Tbb P1 ΔG0” value [12] was -5.59 kcal/mol and the EC50 [13] was 0.15 ± 0.03 µM. For the same compound, the EC50 [14] was 4.3 ± 1.3 µM.

With `Nc1ncnc2c1ncn2[C@@H]1O[C@H](CO)[C@@H](O)[C@H]1O` [Adenosine] the Km ([1]; 0.05 µM [3H]-adenosine, 30 s incubation, bloodstream forms) was 0.48 ± 0.03 µM, the “rate of adenosine uptake” value ([1]; 50 nM [3H]-adenosine, cultured IL3000) was 0.014 ± 0.0037 pmol(10^7 cells)^−1s^−1 and the “Vmax of adenosine uptake” value ([1]; 30 s incubation) was 0.11 ± 0.02 pmol(10^7 cells)^−1s^−1. The “ΔG0, Gibbs free energy of interaction” value ([1]; calculated from Km or Ki) was -8.6 kcal/mol, the Km ([2]; 0.05 µM [3H]-adenosine, 10 s incubation) was 0.42 ± 0.03 µM and the ΔG0 [2] was -8.7 kcal/mol. For the same compound, the “level of uptake of adenosine” value ([3]; 50 nM [3H]-adenosine, SUPKO+TvxNT3) was 3.9 × 10^−3 pmol(10^7 cells)^−1s^−1, the remaining activity at 100 µM ([3]; read-out: [3H]-adenosine uptake remaining in presence of inhibitor) was less than 25% and the Km ([12]; T. b. brucei bloodstream forms, read-out: Tbb P1 Km for adenosine) was 0.36 ± 0.05 µM. The “Tbb P1 ΔG0” value [12] was -8.8 kcal/mol and the Km [15] was 0.41 µM.
